Measured values published in ChEMBL document CHEMBL4507305, “Data for DCP probe TP-024” (2021).

What was measured:
[1] = tested on: Tyrosine-protein kinase ABL1 (Homo sapiens), P00519 [E255K]; settings: Compound concentration 1000.0 nM
[2] = tested on: ALK tyrosine kinase receptor (Homo sapiens), Q9UM73 [C1156Y]; settings: Compound concentration 1000.0 nM
[3] = target: 5'-AMP-activated protein kinase catalytic subunit alpha-2 (Homo sapiens) (UniProt P54646); settings: Compound concentration 1000.0 nM
[4] = target: Mitogen-activated protein kinase kinase kinase 6 (Homo sapiens) (UniProt O95382); settings: Compound concentration 1000.0 nM
[5] = target: Bone morphogenetic protein receptor type-1A (Homo sapiens) (UniProt P36894); settings: Compound concentration 1000.0 nM
[6] = target: Cyclin-dependent kinase 11A (Homo sapiens) (UniProt Q9UQ88); settings: Compound concentration 1000.0 nM
[7] = target: Cyclin-dependent kinase 3 (Homo sapiens) (UniProt Q00526); settings: Compound concentration 1000.0 nM
[8] = tested on: Epidermal growth factor receptor (Homo sapiens), P00533 [UNDEFINED MUTATION]; settings: Compound concentration 1000.0 nM
[9] = tested on: Epidermal growth factor receptor (Homo sapiens), P00533 [UNDEFINED MUTATION]; settings: Compound concentration 1000.0 nM; remark: listed apart in the source
[10] = target: Ephrin type-A receptor 2 (Homo sapiens) (UniProt P29317); settings: Compound concentration 1000.0 nM
[11] = target: Ephrin type-B receptor 3 (Homo sapiens) (UniProt P54753); settings: Compound concentration 1000.0 nM
[12] = target: Receptor tyrosine-protein kinase erbB-3 (Homo sapiens) (UniProt P21860); settings: Compound concentration 1000.0 nM
[13] = target: Fibroblast growth factor receptor 1 (Homo sapiens) (UniProt P11362); settings: Compound concentration 1000.0 nM
[14] = target: Insulin receptor-related protein (Homo sapiens) (UniProt P14616); settings: Compound concentration 1000.0 nM
[15] = target: Tyrosine-protein kinase JAK3 (Homo sapiens) (UniProt P52333); settings: Compound concentration 1000.0 nM
[16] = target: Mitogen-activated protein kinase kinase kinase 1 (Homo sapiens) (UniProt Q13233); settings: Compound concentration 1000.0 nM
[17] = target: Mitogen-activated protein kinase kinase kinase 3 (Homo sapiens) (UniProt Q99759); settings: Compound concentration 1000.0 nM
[18] = target: Mitogen-activated protein kinase kinase kinase kinase 2 (Homo sapiens) (UniProt Q12851); settings: Compound concentration 1000.0 nM
[19] = target: Mitogen-activated protein kinase kinase kinase kinase 3 (Homo sapiens) (UniProt Q8IVH8); settings: Compound concentration 1000.0 nM
[20] = target: Microtubule-associated serine/threonine-protein kinase 1 (Homo sapiens) (UniProt Q9Y2H9); settings: Compound concentration 1000.0 nM
[21] = target: Dual specificity mitogen-activated protein kinase kinase 4 (Homo sapiens) (UniProt P45985); settings: Compound concentration 1000.0 nM
[22] = target: Serine/threonine-protein kinase OSR1 (Homo sapiens) (UniProt O95747); settings: Compound concentration 1000.0 nM
[23] = target: Cyclin-dependent kinase 17 (Homo sapiens) (UniProt Q00537); settings: Compound concentration 1000.0 nM
[24] = target: Platelet-derived growth factor receptor alpha (Homo sapiens) (UniProt P16234); settings: Compound concentration 1000.0 nM
[25] = target: Platelet-derived growth factor receptor beta (Homo sapiens) (UniProt P09619); settings: Compound concentration 1000.0 nM
[26] = target: Cyclin-dependent kinase 2 homolog (Plasmodium falciparum (isolate 3D7)) (UniProt P61075); settings: Compound concentration 1000.0 nM
[27] = tested on: Phosphatidylinositol 4,5-bisphosphate 3-kinase catalytic subunit alpha isoform (Homo sapiens), P42336 [Q546K]; settings: Compound concentration 1000.0 nM
[28] = target: Phosphatidylinositol 4-phosphate 5-kinase type-1 alpha (Homo sapiens) (UniProt Q99755); settings: Compound concentration 1000.0 nM
[29] = target: Phosphatidylinositol 4-phosphate 5-kinase type-1 gamma (Homo sapiens) (UniProt O60331); settings: Compound concentration 1000.0 nM
[30] = target: Serine/threonine-protein kinase PknB (Mycobacterium tuberculosis) (UniProt P9WI81); settings: Compound concentration 1000.0 nM
[31] = target: Serine/threonine-protein kinase PLK1 (Homo sapiens) (UniProt P53350); settings: Compound concentration 1000.0 nM
[32] = target: Serine/threonine-protein kinase PRP4 homolog (Homo sapiens) (UniProt Q13523); settings: Compound concentration 1000.0 nM
[33] = tested on: Proto-oncogene tyrosine-protein kinase receptor Ret (Homo sapiens), P07949 [M918T]; settings: Compound concentration 1000.0 nM
[34] = target: Receptor-interacting serine/threonine-protein kinase 2 (Homo sapiens) (UniProt O43353); settings: Compound concentration 1000.0 nM
[35] = target: Ribosomal protein S6 kinase alpha-4 (Homo sapiens) (UniProt O75676); settings: Compound concentration 1000.0 nM
[36] = target: Ribosomal protein S6 kinase alpha-5 (Homo sapiens) (UniProt O75582); settings: Compound concentration 1000.0 nM
[37] = target: Ribosomal protein S6 kinase alpha-3 (Homo sapiens) (UniProt P51812); settings: Compound concentration 1000.0 nM
[38] = target: Uncharacterized serine/threonine-protein kinase SBK3 (Homo sapiens) (UniProt P0C264); settings: Compound concentration 1000.0 nM
[39] = target: Serine/threonine-protein kinase SIK1 (Homo sapiens) (UniProt P57059); settings: Compound concentration 1000.0 nM
[40] = target: Wee1-like protein kinase (Homo sapiens) (UniProt P30291); settings: Compound concentration 1000.0 nM
[41] = target: 5-hydroxytryptamine receptor 1D (Homo sapiens) (UniProt P28221); settings: Compound concentration 10.0 uM
[42] = target: Delta-type opioid receptor (Homo sapiens) (UniProt P41143); settings: Compound concentration 10.0 uM
[43] = target: Histamine H3 receptor (Homo sapiens) (UniProt Q9Y5N1); settings: Compound concentration 10.0 uM
[44] = target: Beta-3 adrenergic receptor (Homo sapiens) (UniProt P13945); settings: Compound concentration 10.0 uM
Rattus norvegicus = species: Rattus norvegicus; settings: Compound concentration 10.0 uM

Chain of Epidermal growth factor receptor (Homo sapiens), P00533 [UNDEFINED MUTATION] (P00533 whole entry, looked up, change not shown): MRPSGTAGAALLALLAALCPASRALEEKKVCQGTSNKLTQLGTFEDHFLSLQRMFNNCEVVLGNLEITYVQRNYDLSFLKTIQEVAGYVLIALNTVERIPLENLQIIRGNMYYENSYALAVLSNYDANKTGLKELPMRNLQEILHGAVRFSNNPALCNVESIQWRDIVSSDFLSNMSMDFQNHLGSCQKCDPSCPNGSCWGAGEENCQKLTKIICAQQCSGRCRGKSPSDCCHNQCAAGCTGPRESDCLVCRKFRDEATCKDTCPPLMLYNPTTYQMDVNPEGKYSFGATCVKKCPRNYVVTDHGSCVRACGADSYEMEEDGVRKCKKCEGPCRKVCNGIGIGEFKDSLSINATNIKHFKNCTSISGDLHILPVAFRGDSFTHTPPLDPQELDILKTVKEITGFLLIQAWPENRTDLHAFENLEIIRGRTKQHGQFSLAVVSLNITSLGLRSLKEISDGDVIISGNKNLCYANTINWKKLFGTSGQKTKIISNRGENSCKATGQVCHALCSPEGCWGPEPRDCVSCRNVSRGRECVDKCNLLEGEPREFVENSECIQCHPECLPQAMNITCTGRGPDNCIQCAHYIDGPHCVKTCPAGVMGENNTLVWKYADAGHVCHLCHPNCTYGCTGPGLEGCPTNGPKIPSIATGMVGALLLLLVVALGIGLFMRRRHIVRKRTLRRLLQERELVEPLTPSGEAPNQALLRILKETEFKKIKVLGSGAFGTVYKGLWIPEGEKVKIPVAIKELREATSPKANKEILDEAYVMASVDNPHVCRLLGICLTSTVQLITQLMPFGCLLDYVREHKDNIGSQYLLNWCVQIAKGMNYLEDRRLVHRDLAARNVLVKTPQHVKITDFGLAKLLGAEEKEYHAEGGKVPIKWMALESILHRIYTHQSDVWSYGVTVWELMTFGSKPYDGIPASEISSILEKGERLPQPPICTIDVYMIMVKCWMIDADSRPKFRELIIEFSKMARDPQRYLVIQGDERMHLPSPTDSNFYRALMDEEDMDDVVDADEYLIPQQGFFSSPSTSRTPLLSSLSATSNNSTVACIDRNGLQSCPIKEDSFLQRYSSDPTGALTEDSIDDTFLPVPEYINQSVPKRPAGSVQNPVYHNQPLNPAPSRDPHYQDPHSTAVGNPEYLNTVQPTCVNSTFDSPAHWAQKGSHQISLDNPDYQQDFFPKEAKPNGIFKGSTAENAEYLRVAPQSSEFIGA
Chain of Proto-oncogene tyrosine-protein kinase receptor Ret (Homo sapiens), P07949 [M918T] (P07949 whole entry M918T): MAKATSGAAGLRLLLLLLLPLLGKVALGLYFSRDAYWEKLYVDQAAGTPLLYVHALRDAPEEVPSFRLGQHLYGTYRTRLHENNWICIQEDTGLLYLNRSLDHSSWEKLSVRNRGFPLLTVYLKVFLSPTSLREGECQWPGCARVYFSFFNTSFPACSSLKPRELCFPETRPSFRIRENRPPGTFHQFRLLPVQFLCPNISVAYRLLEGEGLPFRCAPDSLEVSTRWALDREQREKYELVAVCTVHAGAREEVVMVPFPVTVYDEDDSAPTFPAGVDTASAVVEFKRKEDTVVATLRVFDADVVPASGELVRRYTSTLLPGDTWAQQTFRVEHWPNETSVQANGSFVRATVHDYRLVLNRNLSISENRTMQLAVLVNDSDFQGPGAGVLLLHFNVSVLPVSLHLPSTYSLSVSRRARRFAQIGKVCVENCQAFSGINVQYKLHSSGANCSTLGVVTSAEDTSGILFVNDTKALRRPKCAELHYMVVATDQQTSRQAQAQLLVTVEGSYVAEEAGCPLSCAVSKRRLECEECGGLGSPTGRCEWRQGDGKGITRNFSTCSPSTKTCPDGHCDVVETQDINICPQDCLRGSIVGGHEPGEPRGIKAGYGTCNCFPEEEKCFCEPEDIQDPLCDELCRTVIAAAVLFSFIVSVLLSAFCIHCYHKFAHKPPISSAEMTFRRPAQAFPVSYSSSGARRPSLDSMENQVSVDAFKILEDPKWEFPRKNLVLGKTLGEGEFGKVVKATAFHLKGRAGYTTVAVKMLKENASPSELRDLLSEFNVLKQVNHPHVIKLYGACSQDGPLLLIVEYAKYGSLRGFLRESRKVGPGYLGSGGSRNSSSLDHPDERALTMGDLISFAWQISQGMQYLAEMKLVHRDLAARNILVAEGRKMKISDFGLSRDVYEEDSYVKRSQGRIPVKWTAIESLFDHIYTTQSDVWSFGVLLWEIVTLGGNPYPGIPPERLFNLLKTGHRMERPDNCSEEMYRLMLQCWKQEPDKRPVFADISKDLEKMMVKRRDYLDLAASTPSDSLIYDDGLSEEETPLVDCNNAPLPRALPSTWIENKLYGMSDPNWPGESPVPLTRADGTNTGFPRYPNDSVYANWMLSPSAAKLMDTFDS
Chain of Fibroblast growth factor receptor 1 (Homo sapiens) (P11362 22-822 limits assumed): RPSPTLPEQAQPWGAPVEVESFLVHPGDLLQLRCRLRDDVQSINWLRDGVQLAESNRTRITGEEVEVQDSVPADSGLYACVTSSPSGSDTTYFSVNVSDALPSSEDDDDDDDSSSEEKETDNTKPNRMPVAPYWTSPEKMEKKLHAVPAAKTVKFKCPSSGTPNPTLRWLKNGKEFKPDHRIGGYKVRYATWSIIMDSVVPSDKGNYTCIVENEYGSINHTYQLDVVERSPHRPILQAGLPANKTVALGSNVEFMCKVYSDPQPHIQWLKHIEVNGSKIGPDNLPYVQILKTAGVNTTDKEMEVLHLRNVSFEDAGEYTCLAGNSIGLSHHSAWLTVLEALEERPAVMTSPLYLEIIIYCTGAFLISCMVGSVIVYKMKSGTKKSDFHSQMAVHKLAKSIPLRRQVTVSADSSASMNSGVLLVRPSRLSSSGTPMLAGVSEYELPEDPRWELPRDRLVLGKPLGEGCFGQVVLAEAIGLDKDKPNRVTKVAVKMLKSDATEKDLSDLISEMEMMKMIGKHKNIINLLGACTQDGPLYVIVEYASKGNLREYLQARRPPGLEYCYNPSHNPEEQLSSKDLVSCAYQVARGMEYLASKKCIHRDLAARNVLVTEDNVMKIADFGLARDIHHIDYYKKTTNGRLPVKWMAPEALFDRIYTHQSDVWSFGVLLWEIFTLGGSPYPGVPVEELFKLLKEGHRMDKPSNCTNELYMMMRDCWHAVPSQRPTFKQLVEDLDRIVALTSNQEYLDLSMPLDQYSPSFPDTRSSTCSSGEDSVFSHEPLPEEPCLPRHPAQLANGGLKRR
Chain of Mitogen-activated protein kinase kinase kinase 3 (Homo sapiens) (Q99759 whole entry): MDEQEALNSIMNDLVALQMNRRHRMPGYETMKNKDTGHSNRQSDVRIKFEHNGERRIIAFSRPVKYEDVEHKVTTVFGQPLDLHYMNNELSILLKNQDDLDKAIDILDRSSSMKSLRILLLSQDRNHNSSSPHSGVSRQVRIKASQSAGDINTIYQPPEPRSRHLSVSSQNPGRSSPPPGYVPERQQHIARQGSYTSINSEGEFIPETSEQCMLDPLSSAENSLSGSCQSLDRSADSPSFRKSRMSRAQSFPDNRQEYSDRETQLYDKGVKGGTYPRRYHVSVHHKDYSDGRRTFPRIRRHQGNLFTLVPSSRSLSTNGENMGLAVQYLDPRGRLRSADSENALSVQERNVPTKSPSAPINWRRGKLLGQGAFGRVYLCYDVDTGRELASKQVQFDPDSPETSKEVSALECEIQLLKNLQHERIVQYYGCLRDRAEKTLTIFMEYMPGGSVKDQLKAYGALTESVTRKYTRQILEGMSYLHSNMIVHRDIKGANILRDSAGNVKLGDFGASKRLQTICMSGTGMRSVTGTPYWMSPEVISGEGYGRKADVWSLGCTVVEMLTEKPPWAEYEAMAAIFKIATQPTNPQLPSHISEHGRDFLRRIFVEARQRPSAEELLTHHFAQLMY
Chain of Platelet-derived growth factor receptor alpha (Homo sapiens) (P16234 whole entry): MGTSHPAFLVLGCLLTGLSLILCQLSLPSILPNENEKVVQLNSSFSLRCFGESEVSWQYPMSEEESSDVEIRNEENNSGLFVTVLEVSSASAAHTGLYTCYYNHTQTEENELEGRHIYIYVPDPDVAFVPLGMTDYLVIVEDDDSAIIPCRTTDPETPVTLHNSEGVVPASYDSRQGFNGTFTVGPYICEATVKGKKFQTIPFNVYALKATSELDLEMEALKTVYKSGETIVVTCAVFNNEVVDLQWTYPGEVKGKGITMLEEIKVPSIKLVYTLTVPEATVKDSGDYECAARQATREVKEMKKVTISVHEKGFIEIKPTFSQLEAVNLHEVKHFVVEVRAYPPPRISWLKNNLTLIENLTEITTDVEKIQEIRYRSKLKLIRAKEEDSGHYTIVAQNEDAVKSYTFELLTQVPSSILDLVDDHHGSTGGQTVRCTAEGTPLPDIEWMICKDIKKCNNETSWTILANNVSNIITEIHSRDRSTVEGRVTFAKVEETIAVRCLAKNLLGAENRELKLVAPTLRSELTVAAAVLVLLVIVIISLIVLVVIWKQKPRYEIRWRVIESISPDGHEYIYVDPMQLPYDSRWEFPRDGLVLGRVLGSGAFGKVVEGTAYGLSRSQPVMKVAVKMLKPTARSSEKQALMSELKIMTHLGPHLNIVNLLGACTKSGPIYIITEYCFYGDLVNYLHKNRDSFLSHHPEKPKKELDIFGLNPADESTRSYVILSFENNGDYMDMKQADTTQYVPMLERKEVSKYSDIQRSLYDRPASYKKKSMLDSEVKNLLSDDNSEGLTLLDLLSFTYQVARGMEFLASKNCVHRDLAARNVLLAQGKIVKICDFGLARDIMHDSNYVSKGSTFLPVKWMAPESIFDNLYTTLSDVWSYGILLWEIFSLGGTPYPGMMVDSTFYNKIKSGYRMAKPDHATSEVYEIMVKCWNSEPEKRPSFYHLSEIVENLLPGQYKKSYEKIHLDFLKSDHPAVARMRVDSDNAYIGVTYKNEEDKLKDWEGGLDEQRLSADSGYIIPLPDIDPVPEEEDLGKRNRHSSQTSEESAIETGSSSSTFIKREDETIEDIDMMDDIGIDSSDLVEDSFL

In the case of `Cc1cc(-n2nc(Cc3cc(F)cc(C(F)(F)F)c3)nc2C)ccc1C(N)=O` [TP-024], the residual activity [1] is reported as 93%, the residual activity [2] is reported as 100% and the residual activity [3] is reported as 100%. For the same compound, the residual activity [4] was 100%, the residual activity [5] was 85% and the residual activity [6] was 100%. It also gave a residual activity [7] of 100%, a residual activity [8] of 100% and a residual activity [9] of 100%. The residual activity [10] was 100%, the residual activity [11] was 100% and the residual activity [12] was 100%. For the same compound, the residual activity [13] was 100%, the residual activity [14] was 100% and the residual activity [15] was 100%. For the same compound, the residual activity [16] was 100%, the residual activity [17] was 94% and the residual activity [18] was 100%. The residual activity [19] was 69%, the residual activity [20] was 100% and the residual activity [21] was 100%. It also gave a residual activity [22] of 91%, a residual activity [23] of 77% and a residual activity [24] of 100%. It also gave a residual activity [25] of 98%, a residual activity [26] of 100% and a residual activity [27] of 76%. It also gave a residual activity [28] of 100%, a residual activity [29] of 66% and a residual activity [30] of 78%. The residual activity [31] was 100%, the residual activity [32] was 54% and the residual activity [33] was 100%. The residual activity [34] was 100%, the residual activity [35] was 95% and the residual activity [36] was 88%. The residual activity [37] was 95%, the residual activity [38] was 91% and the residual activity [39] was 100%. It also gave a residual activity [40] of 100%, an inhibition [41] of 12.5% and an inhibition [42] of -1.45%. It also gave an inhibition [43] of 11.4%, an inhibition [44] of 4.48% and an inhibition (Rattus norvegicus) of 7.23%.
With `Cc1nc(Cc2cccc(C(F)(F)F)c2)sc1-c1ccc(C(N)=O)nc1` [TP-024n] the residual activity [1] was 85%, the residual activity [2] was 68% and the residual activity [3] was 96%. For the same compound, the residual activity [4] was 99%, the residual activity [5] was 76% and the residual activity [6] was 92%. The residual activity [7] was 88%, the residual activity [8] was 0% and the residual activity [9] was 100%. For the same compound, the residual activity [10] was 68%, the residual activity [11] was 100% and the residual activity [12] was 100%. For the same compound, the residual activity [13] was 83%, the residual activity [14] was 100% and the residual activity [15] was 100%. The residual activity [16] was 100%, the residual activity [17] was 97% and the residual activity [18] was 100%. It also gave a residual activity [19] of 76%, a residual activity [20] of 100% and a residual activity [21] of 100%. It also gave a residual activity [22] of 100%, a residual activity [23] of 83% and a residual activity [24] of 88%. It also gave a residual activity [25] of 92%, a residual activity [26] of 100% and a residual activity [27] of 86%. The residual activity [28] was 100%, the residual activity [29] was 84% and the residual activity [30] was 99%. For the same compound, the residual activity [31] was 100%, the residual activity [32] was 70% and the residual activity [33] was 95%. It also gave a residual activity [34] of 100%, a residual activity [35] of 82% and a residual activity [36] of 83%. It also gave a residual activity [37] of 100%, a residual activity [38] of 100% and a residual activity [39] of 100%. It also gave a residual activity [40] of 96%, an inhibition [41] of 8.49% and an inhibition [42] of 4.01%. The inhibition [43] was 3.48%, the inhibition [44] was -1.63% and the inhibition (Rattus norvegicus) was 4.9%.
